Experiment [1] addresses T1, HiBit-BRM fusion protein (Homo sapiens, UniProt P51531).
T1 construct: expressed in transfected cells
As to the kind of experiment: HiBiT-BRM cell-based degradation assay (Nano-Glo HiBiT Lytic Detection, 24 h). To be noted: HeLa cell line expressing HiBiT-BRM; for DC50: read-out: BRM HiBit Degradation IC50. How it is done:
(§1) Procedure: A stable HeLa cell line expressing HiBiT-BRM was generated. On day 0, 5000 cells were seeded in 40 μL of media into each well of 384-well cell culture plates. On day 1, cells were treated with 120 nL DMSO or 120 nL of 3-fold serially DMSO-diluted compounds (10 points in duplicate with 30 μM as final top dose). Subsequently plates were incubated for 24 h in a standard tissue culture incubator and equilibrated at room temperature for 15 minutes. Nano-Glo HiBiT Lytic Detection System (Promega N3050) reagent was freshly prepared and 20 ul was added to each well. Upon addition of this LgBit-containing reagent, the HiBiT and LgBiT proteins associate to form the luminescent NanoBiT luciferase. The plates were shaken for 10 minutes at room temperature and the bioluminescence read using an EnVision plate reader (PerkinElmer).
(§2) The degradation % was calculated using the following formula: % degradation=100%−100%×(LumSample−LumLC)/(LumHC−LumLC). DMSO treated cells are employed as High Control (HC) and 2 μM of a known BRM/BRG1 degrader standard treated cells are employed as Low Control (LC).
A general note: With HiBiT, luminescence reflects the tagged protein that the partner subunit can reach.

In experiment [2] the target is T2, HiBit-BRG1 fusion protein (Homo sapiens, UniProt P51532).
T2 construct: expressed in transfected cells
T2 sequence (P51532 whole entry, the tested form may be a part): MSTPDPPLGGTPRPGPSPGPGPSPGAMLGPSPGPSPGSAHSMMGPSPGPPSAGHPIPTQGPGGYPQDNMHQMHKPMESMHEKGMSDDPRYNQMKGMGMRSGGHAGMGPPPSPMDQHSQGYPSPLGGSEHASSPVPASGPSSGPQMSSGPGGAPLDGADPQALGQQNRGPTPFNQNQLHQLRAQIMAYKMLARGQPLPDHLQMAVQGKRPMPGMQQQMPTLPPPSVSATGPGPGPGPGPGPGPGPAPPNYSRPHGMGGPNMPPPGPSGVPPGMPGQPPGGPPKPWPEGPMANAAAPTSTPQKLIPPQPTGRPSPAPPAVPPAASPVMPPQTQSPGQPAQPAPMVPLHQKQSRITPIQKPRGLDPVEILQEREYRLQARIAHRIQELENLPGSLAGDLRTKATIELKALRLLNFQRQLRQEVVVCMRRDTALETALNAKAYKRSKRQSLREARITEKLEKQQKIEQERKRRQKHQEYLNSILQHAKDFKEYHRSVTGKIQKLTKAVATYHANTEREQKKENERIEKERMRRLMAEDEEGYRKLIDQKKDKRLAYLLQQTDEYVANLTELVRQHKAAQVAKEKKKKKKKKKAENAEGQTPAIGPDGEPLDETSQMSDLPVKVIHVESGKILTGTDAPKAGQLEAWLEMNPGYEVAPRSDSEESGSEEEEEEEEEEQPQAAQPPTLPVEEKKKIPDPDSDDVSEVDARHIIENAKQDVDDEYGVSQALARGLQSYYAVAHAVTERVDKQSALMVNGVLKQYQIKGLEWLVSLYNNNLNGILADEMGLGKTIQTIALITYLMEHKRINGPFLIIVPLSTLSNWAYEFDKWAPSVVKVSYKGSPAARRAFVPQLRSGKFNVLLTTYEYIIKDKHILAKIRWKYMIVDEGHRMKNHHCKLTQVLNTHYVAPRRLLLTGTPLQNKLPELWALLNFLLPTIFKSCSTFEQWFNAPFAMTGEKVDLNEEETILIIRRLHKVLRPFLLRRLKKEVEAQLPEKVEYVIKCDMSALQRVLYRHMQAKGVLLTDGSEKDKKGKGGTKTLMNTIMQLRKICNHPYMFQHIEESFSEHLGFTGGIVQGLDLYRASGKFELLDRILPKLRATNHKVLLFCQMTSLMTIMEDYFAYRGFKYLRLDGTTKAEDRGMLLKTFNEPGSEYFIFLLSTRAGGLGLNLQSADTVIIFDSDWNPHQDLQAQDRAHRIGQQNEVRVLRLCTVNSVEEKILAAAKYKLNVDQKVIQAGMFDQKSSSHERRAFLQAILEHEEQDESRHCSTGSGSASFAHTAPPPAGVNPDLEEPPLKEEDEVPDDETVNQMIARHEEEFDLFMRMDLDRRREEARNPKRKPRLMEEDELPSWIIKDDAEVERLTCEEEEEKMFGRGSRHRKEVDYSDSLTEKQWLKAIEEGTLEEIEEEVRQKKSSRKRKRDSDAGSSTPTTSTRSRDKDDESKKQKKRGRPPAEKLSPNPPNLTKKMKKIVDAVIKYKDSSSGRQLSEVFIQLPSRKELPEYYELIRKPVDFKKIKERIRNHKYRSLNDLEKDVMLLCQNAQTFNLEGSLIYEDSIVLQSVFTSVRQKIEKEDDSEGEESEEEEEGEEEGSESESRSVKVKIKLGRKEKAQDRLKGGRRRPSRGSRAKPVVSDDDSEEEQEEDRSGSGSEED
Put plainly: HiBiT-BRG1 cell-based degradation assay (Nano-Glo HiBiT Lytic Detection, 24 h). The following applies: HeLa cell line expressing HiBit-BRG1 and LgBit; for Dmax: read-out: BRG1 HiBit Degradation Maximum (%); for DC50: read-out: BRMG1 HiBit Degradation IC50. How it is done:
as §1, with “On day 1, cells were treated with 120 nL DMSO or 120 nL of 3-fold serially DMSO-diluted compounds (10 points in duplicate with 30 μM as final top dose).” left out
For measurement of BRG1 degradation, a stable HeLa cell line expressing HiBit-BRG1 and LgBit was generated. The same protocol as above was then followed.
as §2

T1 sequence (P51531 whole entry, the tested form may be a part): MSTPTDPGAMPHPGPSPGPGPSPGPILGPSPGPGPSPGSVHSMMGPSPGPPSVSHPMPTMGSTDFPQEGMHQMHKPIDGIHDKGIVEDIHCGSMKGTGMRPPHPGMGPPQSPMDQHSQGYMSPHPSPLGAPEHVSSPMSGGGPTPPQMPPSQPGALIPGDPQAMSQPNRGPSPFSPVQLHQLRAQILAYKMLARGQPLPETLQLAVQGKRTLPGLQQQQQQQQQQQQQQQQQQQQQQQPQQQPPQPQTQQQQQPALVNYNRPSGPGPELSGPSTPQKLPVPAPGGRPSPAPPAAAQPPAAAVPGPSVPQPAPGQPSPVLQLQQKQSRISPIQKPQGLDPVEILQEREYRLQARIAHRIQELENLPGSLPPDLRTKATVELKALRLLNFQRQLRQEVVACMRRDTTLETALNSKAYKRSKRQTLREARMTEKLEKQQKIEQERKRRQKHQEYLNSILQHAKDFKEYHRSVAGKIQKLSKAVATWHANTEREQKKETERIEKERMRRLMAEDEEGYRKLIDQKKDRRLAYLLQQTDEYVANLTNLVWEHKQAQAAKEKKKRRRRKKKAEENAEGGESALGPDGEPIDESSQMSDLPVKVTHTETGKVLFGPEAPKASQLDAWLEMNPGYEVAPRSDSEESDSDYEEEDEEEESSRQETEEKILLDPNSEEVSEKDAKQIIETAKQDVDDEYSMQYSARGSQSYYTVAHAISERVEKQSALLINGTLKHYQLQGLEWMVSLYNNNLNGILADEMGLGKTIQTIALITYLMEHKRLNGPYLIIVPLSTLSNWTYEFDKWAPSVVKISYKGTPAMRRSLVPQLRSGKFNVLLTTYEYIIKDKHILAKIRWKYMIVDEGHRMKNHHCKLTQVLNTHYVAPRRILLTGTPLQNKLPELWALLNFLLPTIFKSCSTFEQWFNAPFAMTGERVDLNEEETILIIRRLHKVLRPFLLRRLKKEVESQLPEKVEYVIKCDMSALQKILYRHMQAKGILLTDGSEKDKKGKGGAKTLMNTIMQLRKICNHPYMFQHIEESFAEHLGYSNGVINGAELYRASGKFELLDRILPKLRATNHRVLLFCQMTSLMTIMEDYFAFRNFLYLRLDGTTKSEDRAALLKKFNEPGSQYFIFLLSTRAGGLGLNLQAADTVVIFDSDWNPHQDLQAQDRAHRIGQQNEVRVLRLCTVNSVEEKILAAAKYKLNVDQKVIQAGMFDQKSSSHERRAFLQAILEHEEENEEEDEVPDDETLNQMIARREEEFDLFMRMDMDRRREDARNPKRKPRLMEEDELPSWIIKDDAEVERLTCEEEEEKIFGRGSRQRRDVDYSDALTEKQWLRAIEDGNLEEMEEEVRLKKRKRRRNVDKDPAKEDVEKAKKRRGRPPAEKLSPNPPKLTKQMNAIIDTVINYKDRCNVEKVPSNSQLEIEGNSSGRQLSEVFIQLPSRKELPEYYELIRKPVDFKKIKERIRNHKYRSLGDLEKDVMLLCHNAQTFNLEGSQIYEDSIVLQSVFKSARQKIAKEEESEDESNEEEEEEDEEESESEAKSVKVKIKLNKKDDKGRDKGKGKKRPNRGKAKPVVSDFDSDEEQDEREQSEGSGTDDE

Regarding `Cc1ncsc1-c1ccc([C@H](C)NC(=O)[C@@H]2C[C@@H](O)CN2C(=O)[C@@H](c2cc(OCCN3CCC(C)(c4cc5cc(-c6ccccc6O)nnc5[nH]4)CC3)no2)C(C)C)cc1` (racemic) [Compound 276, (2S,4R)-4-hydroxy-1-((R)-2-(3-(2-(4-(3-(2-hydroxyphenyl)-7H-pyrrolo[2,3-c]pyridazin-6-yl)-4-methylpiperidin-1-yl)ethoxy)isoxazol-5-yl)-3-methylbutanoyl)-N-((S)-1-(4-(4-methylthiazol-5-yl)phenyl)ethyl)pyrrolidine-2-carboxamide], in experiment [1], the “BRM HiBit Degradation Maximum (%)” value is listed as “A (“A” indicates maximum degradation ≥ 75%)” and the DC50 was above 10 nM. Besides, in experiment [2], the Dmax was above 50% and the DC50 is above 1000 nM.

For the compound `Cc1ncsc1-c1ccc([C@H](C)NC(=O)[C@@H]2C[C@@H](O)CN2C(=O)[C@H](c2cc(OCCCN3C[C@@H]4[C@H](C3)[C@H]4c3cc4cc(-c5ccccc5O)nnc4[nH]3)no2)C(C)C)cc1` (racemic) [Compound 215, (2S,4R)-4-hydroxy-1-((S)-2-(3-(3-((1R,5S,6S)-6-(3-(2-hydroxyphenyl)-7H-pyrrolo[2,3-c]pyridazin-6-yl)-3-azabicyclo[3.1.0]hexan-3-yl)propoxy)isoxazol-5-yl)-3-methylbutanoyl)-N-((S)-1-(4-(4-methylthiazol-5-yl)phenyl)ethyl)pyrrolidine-2-carboxamide], in experiment [1], the “BRM HiBit Degradation Maximum (%)” value was “C (“C” indicates maximum degradation < 50%)”. In addition, the Dmax in experiment [2] is below 50%.

For `Cc1ncsc1-c1ccc([C@H](C)NC(=O)[C@@H]2C[C@@H](O)CN2C(=O)[C@@H](c2cc(C3CCN(C(=O)[C@H]4C[C@]5(Cc6cc(-c7ccccc7O)nnc6N5)C4)CC3)no2)C(C)C)cc1` (racemic) [Compound 75, (2S,4R)-4-hydroxy-1-((R)-2-(3-(1-((1S,3r)-3′-(2-hydroxyphenyl)-5′,7′-dihydrospiro[cyclobutane-1,6′-pyrrolo[2,3-c]pyridazine]-3-carbonyl)piperidin-4-yl)isoxazol-5-yl)-3-methylbutanoyl)-N-((S)-1-(4-(4-methylthiazol-5-yl)phenyl)ethyl)pyrrolidine-2-carboxamide], in experiment [1], the “BRM HiBit Degradation Maximum (%)” value was “A (“A” indicates maximum degradation ≥ 75%)” and the DC50 was above 10 nM. In addition, in experiment [2], the Dmax is above 50% and the DC50 was above 100 nM.

Take `Cc1ncsc1-c1ccc([C@H](C)NC(=O)[C@@H]2C[C@@H](O)CN2C(=O)[C@@H](c2cc(OCCN3CCc4[nH]c5nnc(-c6ccccc6O)cc5c4C3)no2)C(C)C)cc1` (racemic) [Compound 303, (2S,4R)-4-hydroxy-1-((R)-2-(3-(2-(3-(2-hydroxyphenyl)-5,7,8,9-tetrahydro-6H-pyrido[3′,4′:4,5]pyrrolo[2,3-c]pyridazin-6-yl)ethoxy)isoxazol-5-yl)-3-methylbutanoyl)-N-((S)-1-(4-(4-methylthiazol-5-yl)phenyl)ethyl)pyrrolidine-2-carboxamide]: the “BRM HiBit Degradation Maximum (%)” value in experiment [1] is reported as “C (“C” indicates maximum degradation < 50%)”. Moreover, the Dmax in experiment [2] was below 50%.

In the case of `Cc1ncsc1-c1ccc([C@H](C)NC(=O)[C@@H]2C[C@@H](O)CN2C(=O)[C@@H](c2cc(OCC(=O)N3CC4(Cc5cc(-c6ccccc6O)nnc5N4)C3)no2)C(C)C)cc1` (racemic) [Compound 95, (2S,4R)-4-hydroxy-1-((R)-2-(3-(2-(3′-(2-hydroxyphenyl)-5′,7′-dihydrospiro[azetidine-3,6′-pyrrolo[2,3-c]pyridazin]-1-yl)-2-oxoethoxy)isoxazol-5-yl)-3-methylbutanoyl)-N-((S)-1-(4-(4-methylthiazol-5-yl)phenyl)ethyl)pyrrolidine-2-carboxamide], in experiment [1], the “BRM HiBit Degradation Maximum (%)” value is listed as “B (“B” indicates maximum degradation ≥ 50%)” and the DC50 was above 1000 nM. In experiment [2], the Dmax was below 50%.

For `Cc1ncsc1-c1ccc([C@H](C)NC(=O)[C@@H]2C[C@@H](O)CN2C(=O)[C@H](c2cc(OCCN3CC(c4cc5cc(-c6ccccc6O)nnc5[nH]4)C3)no2)C(C)C)cn1` (single isomer, unassigned) [Compound 218], the “BRM HiBit Degradation Maximum (%)” value in experiment [1] was “C (“C” indicates maximum degradation < 50%)”. In addition, the Dmax in experiment [2] was below 50%.

On to `O=C1CCC(N2C(=O)c3ccc(OCCOCCOCCC(=O)N4CC(c5cc6cc(-c7ccccc7O)nnc6[nH]5)C4)cc3C2=O)C(=O)N1` (stereo not shown) [Compound 24, 2-(2,6-dioxopiperidin-3-yl)-5-(2-(2-(3-(3-(3-(2-hydroxyphenyl)-7H-pyrrolo[2,3-c]pyridazin-6-yl)azetidin-1-yl)-3-oxopropoxy)ethoxy)ethoxy)isoindoline-1,3-dione], for which the “BRM HiBit Degradation Maximum (%)” value in experiment [1] was “C (“C” indicates maximum degradation < 50%)”. Also, the Dmax in experiment [2] was below 50%.

`Cc1ncsc1-c1ccc([C@H](C)NC(=O)[C@@H]2C[C@@H](O)CN2C(=O)[C@@H](c2cc(OCCN3C[C@@H]4[C@H](C3)[C@H]4c3cc4cc(-c5cc(F)cc(Cl)c5O)nnc4[nH]3)no2)C(C)C)cc1` (racemic) [Compound 225, (2S,4R)-1-((R)-2-(3-(2-((1R,5S,6R)-6-(3-(3-chloro-5-fluoro-2-hydroxyphenyl)-7H-pyrrolo[2,3-c]pyridazin-6-yl)-3-azabicyclo[3.1.0]hexan-3-yl)ethoxy)isoxazol-5-yl)-3-methylbutanoyl)-4-hydroxy-N-((S)-1-(4-(4-methylthiazol-5-yl)phenyl)ethyl)pyrrolidine-2-carboxamide]: in experiment [1], the “BRM HiBit Degradation Maximum (%)” value is “A (“A” indicates maximum degradation ≥ 75%)” and the DC50 was above 10 nM. Further, the Dmax in experiment [2] is below 50%.

On to `Cc1ncsc1-c1ccc([C@H](C)NC(=O)[C@@H]2C[C@@H](O)CN2C(=O)[C@@H](c2cc(OCCN3C[C@@H]4[C@H](C3)[C@H]4c3[nH]c4nnc(-c5ccccc5O)cc4c3Cl)no2)C(C)C)cc1` (racemic) [Compound 131, (2S,4R)-1-[(2R)-2-(3-{2-[(1R,5S,6S)-6-[5-chloro-3-(2-hydroxyphenyl)-7H-pyrrolo[2,3-c]pyridazin-6-yl]-3-azabicyclo[3.1.0]hexan-3-yl]ethoxy}-1,2-oxazol-5-yl)-3-methylbutanoyl]-4-hydroxy-N-[(1S)-1-[4-(4-methyl-1,3-thiazol-5-yl)phenyl]ethyl]pyrrolidine-2-carboxamide], for which, in experiment [1], the “BRM HiBit Degradation Maximum (%)” value is “A (“A” indicates maximum degradation ≥ 75%)” and the DC50 was above 10 nM. In addition, in experiment [2], the Dmax is above 50% and the DC50 is above 100 nM.

For `Cc1ncsc1-c1ccc(CNC(=O)[C@@H]2C[C@@H](O)CN2C(=O)[C@@H](NC(=O)CCCCCCCCCCCCCCC(=O)N2CC(c3cc4cc(-c5ccccc5O)nnc4[nH]3)C2)C(C)(C)C)cc1` [Compound 21, (2S,4R)-4-hydroxy-1-((S)-2-(16-(3-(3-(2-hydroxyphenyl)-7H-pyrrolo[2,3-c]pyridazin-6-yl)azetidin-1-yl)-16-oxohexadecanamido)-3,3-dimethylbutanoyl)-N-(4-(4-methylthiazol-5-yl)benzyl)pyrrolidine-2-carboxamide], the “BRM HiBit Degradation Maximum (%)” value in experiment [1] is reported as “C (“C” indicates maximum degradation < 50%)”. Besides, the Dmax in experiment [2] was below 50%.

Regarding `Cc1ncsc1-c1ccc([C@H](C)NC(=O)[C@@H]2C[C@@H](O)CN2C(=O)[C@@H](c2cc(OCCN3CCC(N4CC(c5cc6cc(-c7ccccc7O)nnc6[nH]5)C4)C3)no2)C(C)C)cc1` (mixture of isomers) [Compound 49, (2S,4R)-4-hydroxy-1-((2R)-2-(3-(2-(3-(3-(3-(2-hydroxyphenyl)-7H-pyrrolo[2,3-c]pyridazin-6-yl)azetidin-1-yl)pyrrolidin-1-yl)ethoxy)isoxazol-5-yl)-3-methylbutanoyl)-N-((S)-1-(4-(4-methylthiazol-5-yl)phenyl)ethyl)pyrrolidine-2-carboxamide], in experiment [1], the “BRM HiBit Degradation Maximum (%)” value is given as “A (“A” indicates maximum degradation ≥ 75%)” and the DC50 is above 10 nM. Moreover, in experiment [2], the Dmax is above 50% and the DC50 is above 100 nM.

With `Cc1ncsc1-c1ccc([C@H](C)NC(=O)[C@@H]2C[C@@H](O)CN2C(=O)[C@H](c2cc(CN3CCc4[nH]c5nnc(-c6ccccc6O)cc5c4C3)no2)C(C)C)cc1` (single isomer, unassigned) [Compound 135], the “BRM HiBit Degradation Maximum (%)” value in experiment [1] is reported as “C (“C” indicates maximum degradation < 50%)”. For the same compound, the Dmax in experiment [2] is below 50%.
